Data on two compounds can be found in patent US5877185A, “Synergistic compositions useful as anti-tumor agents” (priority 1995, dated 1999).

Assay [1] has as its system SIVmac239 or virus isolates in CEM ×174 cells. Description: SIV replication in CEM ×174 cells, SIV p27 core antigen assay. It is filed as cell-based. The text has this: Infected cell cultures described in FIG. 4 were used for determination of supernatant virus titers by SIV p27 core antigen assay as described in Example XIV. The ordinate represents p27 ELISA performed on day 10 of the assay and the abscissa represents the concentration of INO2 BA alone (rear rows in panels A, B and C) and in combination with BSO (front rows in panels A, B and C).
(§1) CEM ×174 cells (3×10^5 /ml) were infected with 3.75 TCID50 /ml (50% tissue culture infectious dosage per ml of cell suspension) stock solution of SIVmac239 or virus isolates from SIVmac239-infected rhesus macaques on day 0. Uniform infection of cells was ensured by the infection of one cell population only per virus preparation. Three days post-infection, the cells were distributed (500 μl/well) into individual wells of a 24-well plate. Fresh medium containing INO2 BA concentrations ranging from 0 to 300 μM and/or BSO concentrations ranging from 0 to 0.25 mM were added to establish final 1-ml reaction volumes, and the cultures were further incubated for 4 days. The wells were then replenished with fresh CEM ×174 cells (3×10^5 /ml), INO2 BA and/or BSO were re-added at the same concentrations as in the original incubates, and incubation was continued for an additional 3 days. This procedure intends to mimic conditions of in vivo chemotherapy. Cell viability and virus titers in the supernatant were determined on day 10 (3 days after the addition of new cells) by the tetrazolium (MTT) method of Hansen et al., J. Immunol. Methods 119:208-210 (1982) and by the SIV p27 and reverse transcriptase (RT) assays described by Chuang et al., FEBS Lett. 326:140-144 (1993), respectively.
SIVmac p27 core antigen levels were determined by an enzyme immunoassay provided by Coulter Corp. (Hialeah, Fla.). The assay was performed according to the manufacturer's specifications.

A further assay concerns AA-2 leukemia cells. Kind of assay: cytocidal effect in combination with ascorbate. The conditions noted are these: for protection against apoptosis-inducing action: 160 μM ascorbate, 18 hr of drug exposure; for cell number Day 1 / cell number Day 2: alone or with ascorbate 160 μM; for cell number Day 1: 18 hr; for cell number Day 2: 42 hr. The method, then: Because of the in vitro reactivity of the nitroso group of INOBA with both ascorbate and GSH, the apoptosis-inducing effect of NOBA with the action of the prodrug INO2 BA in the presence of ascorbate, added simultaneously with both drugs was compared.
AA-2 cells were seeded at a density of 0.2×10^6 cells/ml. Drugs and/or sodium ascorbate were added at the time of seeding, and cells were counted by hemacytometer after incubation (37° C., 5% CO^2) for 18 hr (Day 1) and for 42 hr (Day 2). Viability was evaluated by Trypan Blue exclusion.

The test system of a further assay is L-1210 cells. Description: time course of cell killing alone and with BSO, L-1210. It is filed as cell-based, murine. The conditions noted are these: L-1210, 2-3 day period; 1 mM BSO. The protocol: (§2) Molt 4-cells were seeded at a density of 0.05×10^6 cell/ml in the recommended growth medium in the absence or the presence of drugs as indicated. Cells were incubated at 37° C. in a 5% CO2 atmosphere and proliferation was monitored in 14 hr. by cell counting in a hemacytometer. .smallcircle., untreated control; .circle-solid., treated with 4 μM 4-iodo-3-nitrobenzoic acid; .gradient., treated with 1 mM BSO; .tangle-soliddn., treated with 4 μM-iodo-3-nitrobenzoic acid and 1 mM BSO; .quadrature., treated with 4 μM 4-INO2 BA; .box-solid., treated with 1 mM BSO; .gradient., treated with 4 μM INO2 BA and 1 mM BSO. L-1210 cells were seeded at a density of 0.05×10^6 cells/ml either from untreated stock suspensions or from 24-hr. pretreated (0.2×10^6 cells/ml) suspensions. .smallcircle., untreated control; .circle-solid., treated with […] NOBA; .gradient., treated with 1 mM BSO; .tangle-soliddn., 24-hr pretreatment with 1 mM BSO then treated with 4 μM NOBA.
(§3) A time course of the cell killings by 4-iodo-3-nitrobenzoic acid, INO2 BA and NOBA, each alone and in combination with BSO was obtained. Molt-4 cells were seeded at a density of 0.05×10^6 cells/ml in the recommended growth medium in the absence or presence of drugs as indicated in FIG. 3. Drugs were added to the wells immediately after seeding from 10-40 mM stock solution in DMSO. BSO was added from a 100 mM aqueous stock solution. Cells were incubated at 37° C. in a 5% CO2 atmosphere and proliferation was monitored in 14 hours by cell counting in a hemacytometer.

The next assay concerns PC-12. Kind of assay: cytotoxicity of INO2 BA with and without BSO, PC-12. It is filed as cell-based. Conditions: Rattus norvegicus, INO2 BA alone, 48 hours. The protocol: The concentration of BSO was 1 mM for all cell lines except HT 144, where the concentration was 0.25 mM. Cells were seeded in the recommended growth medium at a density of 1.5×10^4 cell/cm^2 into 2 cm^2 wells. Drugs were added simultaneously 4 hours after seeding, and incubation was continued for 48 hours at 37° C. in a 5% CO2 atmosphere. For assessment of drug effects cells were detached by trypsinization and counted in a hemacytometer.
Cell lines Nos. 1-4 were obtained from Dr. C. Benz, University of California, San Francisco. MDA 468 and MCF-7 human mammary cancer lines, MCF-7-B-ADR drug-resistant mammary cancer line, Du 145 drug-resistant human prostate cancer line, HT 144 human melanoma cell line, Hep-G2 human hepatocellular carcinoma line, and PC-12 rat pheochromocytoma line were obtained from the University of California Cell Culture Facility.

Assay [2] has as its system HIV in intact human macrophages. Conditions: Kun et al., Abstract 422A; cited from earlier work.
A further assay relates to Molt-4 cells. Description: time course of cell killing alone and with BSO, Molt-4. Conditions: Molt-4, 2-3 day period; 4 μM drug, 1 mM BSO. It is filed as cell-based. The protocol: as §2, §3
For another assay, the system named is SIVmac in CEM ×174 cells. Description: SIVmac replication in CEM ×174 cells, reverse transcriptase assay. It is filed as cell-based, SIV. Conditions: for effect on SIVmac replication in pre-infected cells: cells pre-infected one day prior to treatment. The method, then: as §1
To evaluate the activity of SIV reverse transcriptase, 10 μl of infected cell supernatant was added to a reaction mixture containing 50 mM Tris-HCl (pH 8.0), 5 mM MgCl2, 10 mM dithiothreitol, 20 mM KCl, and 1% Triton X-100 in a total volume of 50 μl. Poly(rA):oligo (dT)12-18 was present at 100 μg/ml and 2.4 μM [^3 H]TTP was used. The reaction mixtures were incubated at 37° C. for 1 hr and the TCA-precipitableradioactivity was filtered onto nitrocellulose filters which were then washed, dried and counted.
The effect of INO2 BA on SIVmac replication in CEM ×174 cells that were pre-infected with virus for one day prior to treatment with INO2 BA are shown in FIG. 6. The cell culture and SIV reverse transcription assay were performed as described in Example XIV.

A further assay deals with HIV-1 (MN strain). Kind of assay: infectivity of NOBA-treated HIV-1 virions. It is filed as cell-based. Conditions: 3000 or 6000 μM NOBA, 37° C.
The mark [3] stands for this setting: 42 h, read-out: dead cells Day 2.

As to `NC(=O)c1ccc(I)c([N+](=O)[O-])c1` [INO2 BA, 4-iodo-3-nitrobenzamide], the “SIV p27 formation” value in assay [1] (INO2 BA alone, FIG. 5A-C) is reported as “almost complete inhibition”. In addition, the “effect of GSH depletion by BSO on inhibitory effect on SIV replication” value in assay [1] (with BSO, CEM ×174 cells) is reported as “synergistically enhances”. In the assay on AA-2 leukemia cells, the “protection against apoptosis-inducing action” value is “did not prevent apoptosis”. In the assay on AA-2 leukemia cells (setting [3]), the cytotoxicity at 16 µM stood at 40%. In the assay on AA-2 leukemia cells (INO2 BA 16 μM), the “cell number Day 1” value came to 250000 mL⁻¹ and the “cell number Day 2” value was found to be 450000 mL⁻¹. For the same compound, in the assay on L-1210 cells, the “effect on cell proliferation” value is “no significant effect”. Also, in the assay on PC-12 (read-out: I50), the IC50 came to 60 µM. In addition, in the assay with PC-12 (read-out: LD100), the IC100 turned out to be 120 µM. In assay [2], the “inhibition of HIV replication” value is given as “readily inhibited”. In the assay with Molt-4 cells, the “effect on cell proliferation” value is on record as “no significant effect”. In addition, the reverse transcriptase activity entry in the assay with SIVmac in CEM ×174 cells (SIV-infected CEM ×174 cells, FIG. 6) is listed as “greatly depressed”. Further, the “effect on SIVmac replication in pre-infected cells” value in the assay with SIVmac in CEM ×174 cells is reported as “effective even when incubated with cells that have been infected”.

For `NC(=O)c1cccc(N=O)c1` [NOBA, 3-nitrosobenzamide], the “protection against apoptosis-inducing action” value in the assay with AA-2 leukemia cells is listed as “completely protected”. In the assay on AA-2 leukemia cells (setting [3]), the cytotoxicity at 32 µM came to 50%. Further, in the assay on AA-2 leukemia cells (NOBA 32 μM), the “cell number Day 1” value turned out to be 290000 mL⁻¹ and the “cell number Day 2” value came to 370000 mL⁻¹. Besides, the “effect on cell proliferation” value with L-1210 cells is recorded as “no significant effect”. Moreover, the “effect on cell proliferation” value in the assay on Molt-4 cells is “no significant effect”. Moreover, the infectivity entry in the assay on HIV-1 (MN strain) is reported as “complete loss of infectivity”. Besides, the “effect on SIVmac replication in pre-infected cells” value in the assay with SIVmac in CEM ×174 cells was “requires pre-incubation with cells prior to viral infection”.
